Laboratory results as given in patent US8039453B2, “Vinca derivatives” (priority 2006, dated 2011).
Like-named read-outs stand apart in the source and are kept apart here.

Tested on: HeLa S-3 human cervical carcinoma cell line
Test: HeLa GI50 determination (SRB growth inhibition)
Type: cell-based
Details: HeLa S3, 48 h, read-out: HeLa Cells GI50
Experimental: A. HeLa GI50 Determinations
Growth inhibition (GI50) values were measured on the human cervical carcinoma cell line, HeLa S-3, which were selected for growth on plastic. The HeLa cell assay was based on the description of Skehan et al., J. Natl. Cancer Inst., 82:1107-12 (1990), which is hereby incorporated by reference in its entirety. HeLa cells were plated at 2×10^4 cells/well in 96 well plates. One day later, a control plate was fixed by the addition of TCA to 5%. After five rinses with tap water, the plate was air-dried and stored at 4° C. Test compounds were added to the remaining plates at 10-fold dilutions. Two days later, all plates were fixed as described above. Cells were then stained by the addition of 100 μL per well of 0.4% sulforhodamine B (SRB) in 1% acetic acid for 30 min at 4° C. Wells were then quickly rinsed 5× with 1% acetic acid and allowed to air dry. The SRB was then solubilized by the addition of 100 μL per well of unbuffered 10 mM Tris base. Dye was quantified by measuring absorbance at 490 nm on a Molecular Devices microplate reader. Growth inhibition was calculated according to the following equation: GI=100×(T−T0)/(C−T0), where the optical density (OD) of the test well after 2 days of treatment was T, the OD of the wells in the control plate on day 0 was T0 and C was the OD of untreated wells. Plots of percent growth inhibition versus inhibitor concentration were used to determine the GI50.

[1] = HeLa S-3 cells, 2 days of treatment, sulforhodamine B staining

Row | Compound | GI50 [µM] | GI50 [1] [µM]
1 | CC[C@]12C=CCN3CC[C@@]4(c5cc([C@@]6(C(=O)OC)C[C@H]7CC(C(C)(F)F)CN(CCc8c6[nH]c6ccc(-c9ccccc9)cc86)C7)c(OC)cc5N(C)[C@H]4[C@@](O)(C(=O)OC)[C@@H]1OC(C)=O)[C@@H]32 (stereo partly drawn) [Example 6, 12′-Phenyl-4′-deoxy-20′,20′-diflurovincaleukoblastine] | 23.1 | –
2 | CC[C@]12C=CCN3CC[C@@]4(c5cc([C@@]6(C(=O)OC)C[C@H]7CC(C(C)(F)F)CN(CCc8c6[nH]c6ccc(SC)cc86)C7)c(OC)cc5N(C)[C@H]4[C@@](O)(C(=O)OC)[C@@H]1OC(C)=O)[C@@H]32 (stereo partly drawn) [Example 12, 12′-(Methylsulfanyl)-4′-deoxy-20′,20′-diflurovincaleukoblastine] | – | 0.093
3 | CCc1ccc2[nH]c3c(c2c1)CCN1CC(C(C)(F)F)C[C@@H](C1)C[C@]3(C(=O)OC)c1cc2c(cc1OC)N(C)[C@H]1[C@@](O)(C(=O)OC)[C@H](OC(C)=O)[C@]3(CC)C=CCN4CC[C@]21[C@@H]43 (stereo partly drawn) [Example 3, 12′-Ethyl-4′-deoxy-20′,20′-diflurovincaleukoblastine] | – | > 1
